{
  "source": "patent US20230031406A1",
  "about": "“COMPOUNDS AND COMPOSITIONS FOR TREATING CONDITIONS ASSOCIATED WITH NLRP ACTIVITY” (Novartis AG, priority 2018, published 2023)",
  "note": "pIC50: −log10 of the molar value.",
  "data": [
    {"test_system": "PMA-differentiated THP-1 cells", "assay": "IL-1β production in PMA-differentiated THP-1 cells stimulated with gramicidin (hTHP-1 assay containing 2% fetal bovine serum; Procedures 1 and 2)", "assay_type": "cell-based, human", "conditions": "Homo sapiens, THP-1, Table B2; 2% fetal bovine serum; class symbols; read-out: hTHP-1 IC50", "in_short": "(§1)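 Secreted IL-1β, read by HTRF, after gramicidin challenge (5 μM, 2 h) of THP-1 cells differentiated with PMA (20 ng/ml, 16-18 h) and plated at 50,000 cells/well in 2% FBS medium. Compounds, 0.0017-100 μM final with 0.37% DMSO, were added 1 h before stimulation.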", "values": [
      {"compound": "CC(C)(O)c1ccc(S(N)(=O)=NC(=O)Nc2c3c(nc4c2CCC4(C)C)CCC3)cn1", "note": "(single isomer, unassigned) [Compound 673a, (R) or (S)-N′-((3,3-dimethyl-1,2,3,5,6,7-hexahydrodicyclopenta [b,e]pyridin-8-yl)carbamoyl)-6-(2-hydroxypropan-2-yl)pyridine-3-sulfonimidamide]", "pIC50": "5.30 to 6.00"},
      {"compound": "CC(C)(O)c1cc(C#N)cc(S(N)(=O)=NC(=O)Nc2c3c(nc4c2CCC4(C)C)CCC3)c1", "note": "(single isomer, unassigned) [Compound 674b, (R) or (S)-3-Cyano-N′-((3,3-dimethyl-1,2,3,5,6,7-hexahydrodicyclopenta [b,e]pyridin-8-yl)carbamoyl)-5-(2-hydroxypropan-2-yl)benzene-sulfonimidamide]", "pIC50": "5.30 to 6.00"},
      {"compound": "Cc1c(C2CC2)nc2c(c1NC(=O)N=S(N)(=O)c1ccn(C(F)F)n1)CCC2", "note": "(single isomer, unassigned) [Compound 676b, (R) or (S)-N′-((2-cyclopropyl-3-methyl-6,7-dihydro-5H-cyclopenta[b]pyridin-4-yl)carbamoyl)-1-(difluoromethyl)-1H-pyrazole-3-sulfonimidamide]", "pIC50": "5.30 to 6.00"},
      {"compound": "CC(C)(O)c1sc(S(N)(=O)=NC(=O)Nc2c3c(nc4c2CCC4)CCC3)cc1F", "note": "(single isomer, unassigned) [Compound 678a, (R) or (S)-4-Fluoro-N′-((1,2,3,5,6,7-hexahydrodicyclopenta [b,e]pyridin-8-yl)carbamoyl)-5-(2-hydroxypropan-2-yl)thiophene-2-sulfonimidamide]", "pIC50": "5.30 to 6.00"}
    ]},
    {"test_system": "PMA-differentiated THP-1 cells", "assay": "IL-1β production in PMA-differentiated THP-1 cells stimulated with gramicidin (hTHP-1 assay containing 2% fetal bovine serum; Procedures 1 and 2)", "assay_type": "cell-based, human", "conditions": "Homo sapiens, THP-1, Table B2; 2% fetal bovine serum; numeric bounds; read-out: hTHP-1 IC50", "in_short": "as §1", "values": [
      {"compound": "CCC1CCc2c1nc1c(c2NC(=O)N=S(N)(=O)c2sc(C(C)(C)O)cc2F)CCC1", "note": "(single isomer, unassigned) [Compound 671a, (S, S) or (S, R) or (R, S) or (R, R)-N′-((3-ethyl-1,2,3,5,6,7-hexahydrodicyclopenta [b,e]pyridin-8-yl)carbamoyl)-3-fluoro-5-(2-hydroxypropan-2-yl) thiophene-2-sulfonimidamide]", "pIC50": "< 4.52"},
      {"compound": "CC(C)(O)c1ccc(S(N)(=O)=NC(=O)Nc2c3c(nc4c2CCC4(C)C)CCC3)cn1", "note": "(single isomer, unassigned) [Compound 673b, (S) or (R)-N′-((3,3-dimethyl-1,2,3,5,6,7-hexahydrodicyclopenta [b,e]pyridin-8-yl)carbamoyl)-6-(2-hydroxypropan-2-yl)pyridine-3-sulfonimidamide]", "pIC50": "< 4.52"},
      {"compound": "CC(C)(O)c1cc(C#N)cc(S(N)(=O)=NC(=O)Nc2c3c(nc4c2CCC4(C)C)CCC3)c1", "note": "(single isomer, unassigned) [Compound 674a, (S) or (R)-3-Cyano-N′-((3,3-methyl-1,2,3,5,6,7-hexahydrodicyclopenta [b,e]pyridin-8-yl)carbamoyl)-5-(2-hydroxypropan-2-yl)benzene-sulfonimidamide]", "pIC50": "< 4.52"},
      {"compound": "Cc1c(C2CC2)nc2c(c1NC(=O)N=S(N)(=O)c1ccn(C(F)F)n1)CCC2", "note": "(single isomer, unassigned) [Compound 676a, (S) or (R)-N′-((2-cyclopropyl-3-methyl-6,7-dihydro-5H-cyclopenta[b]pyridin-4-yl)carbamoyl)-1-(difluoromethyl)-1H-pyrazole-3-sulfonimidamide]", "pIC50": "< 4.52"},
      {"compound": "CC(C)(O)c1sc(S(N)(=O)=NC(=O)Nc2c3c(nc4c2CCC4)CCC3)cc1F", "note": "(single isomer, unassigned) [Compound 678b, (S) or (R)-4-Fluoro-N′-((1,2,3,5,6,7-hexahydrodicyclopenta [b,e]pyridin-8-yl)carbamoyl)-5-(2-hydroxypropan-2-yl)thiophene-2-sulfonimidamide]", "pIC50": "< 4.52"}
    ]},
    {"test_system": "PMA-differentiated THP-1 cells", "assay": "IL-1β production in PMA-differentiated THP-1 cells stimulated with gramicidin (hTHP-1 assay containing 2% fetal bovine serum; Procedures 1 and 2)", "assay_type": "cell-based, human", "conditions": "Table B2; 2% fetal bovine serum; class symbols; read-out: hTHP-1 IC50", "in_short": "as §1", "values": [
      {"compound": "CCC1CCc2c1nc1c(c2NC(=O)N=S(N)(=O)c2sc(C(C)(C)O)cc2F)CCC1", "note": "(single isomer, unassigned) [Compound 671b, (S, R) or (S, S) or (R, S) or (R, R)-N′-((3-ethyl-1,2,3,5,6,7-hexahydrodicyclopenta [b,e]pyridin-8-yl)carbamoyl)-3-fluoro-5-(2-hydroxypropan-2-yl) thiophene-2-sulfonimidamide]", "pIC50": "4.52 to 5.30"},
      {"compound": "CCC1CCc2c1nc1c(c2NC(=O)N=S(N)(=O)c2sc(C(C)(C)O)cc2F)CCC1", "note": "(single isomer, unassigned) [Compound 671c, (R, S) or (R, R) or (S, R) or (S, S)-N′-((3-ethyl-1,2,3,5,6,7-hexahydrodicyclopenta [b,e]pyridin-8-yl)carbamoyl)-3-fluoro-5-(2-hydroxypropan-2-yl) thiophene-2-sulfonimidamide]", "pIC50": "5.30 to 6.00"},
      {"compound": "CCC1CCc2c1nc1c(c2NC(=O)N=S(N)(=O)c2sc(C(C)(C)O)cc2F)CCC1", "note": "(single isomer, unassigned) [Compound 671d, (R, R) or (R, S) or (S, R) or (S, S)-N′-((3-ethyl-1,2,3,5,6,7-hexahydrodicyclopenta [b,e]pyridin-8-yl)carbamoyl)-3-fluoro-5-(2-hydroxypropan-2-yl) thiophene-2-sulfonimidamide]", "pIC50": "6.00 to 6.70"},
      {"compound": "CCc1c(C2CC2)nc2c(c1NC(=O)N=S(N)(=O)c1cnc(C(C)(C)O)s1)CCC2", "note": "(single isomer, unassigned) [Compound 675a, (R) or (S)-N′-((2-cyclopropyl-3-ethyl-6,7-dihydro-5H-cyclopenta[b]pyridin-4-yl)carbamoyl)-2-(2-hydroxypropan-2-yl)thiazole-5-sulfonimidamide]", "pIC50": "5.30 to 6.00"},
      {"compound": "CCc1c(C2CC2)nc2c(c1NC(=O)N=S(N)(=O)c1cnc(C(C)(C)O)s1)CCC2", "note": "(single isomer, unassigned) [Compound 675b, (S) or (R)-N′-((2-cyclopropyl-3-ethyl-6,7-dihydro-5H-cyclopenta[b]pyridin-4-yl)carbamoyl)-2-(2-hydroxypropan-2-yl)thiazole-5-sulfonimidamide]", "pIC50": "4.52 to 5.30"},
      {"compound": "CC(C)c1nc(CO)c(S(N)(=O)=NC(=O)Nc2c3c(nc4c2CCC4(C)C)CCC3)s1", "note": "(single isomer, unassigned) [Compound 680a, (S) or (R)-N′-((3,3-dimethyl-1,2,3,5,6,7-hexahydrodicyclopenta [b,e]pyridin-8-yl)carbamoyl)-4-(hydroxymethyl)-2-isopropylthiazole-5-sulfonimidamide]", "pIC50": "4.52 to 5.30"},
      {"compound": "CC(C)c1nc(CO)c(S(N)(=O)=NC(=O)Nc2c3c(nc4c2CCC4(C)C)CCC3)s1", "note": "(single isomer, unassigned) [Compound 680b, (R) or (S)-N′-((3,3-dimethyl-1,2,3,5,6,7-hexahydrodicyclopenta [b,e]pyridin-8-yl)carbamoyl)-4-(hydroxymethyl)-2-isopropylthiazole-5-sulfonimidamide]", "pIC50": "5.30 to 6.00"},
      {"compound": "Cc1c(C(C)C)nc2c(c1NC(=O)N=S(N)(=O)c1cc(C(C)(C)O)cs1)CCC2", "note": "(single isomer, unassigned) [Compound 681a, (S) or (R)-4-(2-Hydroxypropan-2-yl)-N′-((2-isopropyl-3-methyl-6,7-dihydro-5H-cyclopenta[b]pyridin-4-yl)carbamoyl) thiophene-2-sulfonimidamide]", "pIC50": "5.30 to 6.00"},
      {"compound": "Cc1c(C(C)C)nc2c(c1NC(=O)N=S(N)(=O)c1cc(C(C)(C)O)cs1)CCC2", "note": "(single isomer, unassigned) [Compound 681b, (R) or (S)-4-(2-Hydroxypropan-2-yl)-N′-((2-isopropyl-3-methyl-6,7-dihydro-5H-cyclopenta[b]pyridin-4-yl)carbamoyl) thiophene-2-sulfonimidamide]", "pIC50": "6.00 to 6.70"}
    ]}
  ]
}
